# Reference: patent US20230218563A1, “METHODS FOR TREATING OR PREVENTING CHRONIC KIDNEY DISEASE” (Arthrosi Therapeutics, Inc., priority 2020, published 2023)
# pIC50: −log10 of the molar value.
# How the values were obtained:
# serum uric acid (sUA) = assay: Phase 2a cross-over study in adults with gout, serum uric acid; type: in vivo, human; conditions: for patients with sUA levels below 5 mg/dL / patients with sUA levels below 6 mg/dL: gout patients (sUA>7 mg/dL), alone or combined; for mean sUA level reached at maximum: mean baseline 8.9 mg/dL
# [1] = target: T1, human URAT1 uptake transporter (Homo sapiens, UniProt Q96S37); assay: Inhibition of URAT1 mediated uric acid uptake in MDCKII cells stably expressing human URAT1; type: cell-based; conditions: MDCKII cells expressing human URAT1; 20 μM uric acid probe; read-out: IC50, inhibition of URAT1 mediated uric acid accumulation
# T1 construct: expressed in transfected cells
# T1 sequence (Q96S37 1-553): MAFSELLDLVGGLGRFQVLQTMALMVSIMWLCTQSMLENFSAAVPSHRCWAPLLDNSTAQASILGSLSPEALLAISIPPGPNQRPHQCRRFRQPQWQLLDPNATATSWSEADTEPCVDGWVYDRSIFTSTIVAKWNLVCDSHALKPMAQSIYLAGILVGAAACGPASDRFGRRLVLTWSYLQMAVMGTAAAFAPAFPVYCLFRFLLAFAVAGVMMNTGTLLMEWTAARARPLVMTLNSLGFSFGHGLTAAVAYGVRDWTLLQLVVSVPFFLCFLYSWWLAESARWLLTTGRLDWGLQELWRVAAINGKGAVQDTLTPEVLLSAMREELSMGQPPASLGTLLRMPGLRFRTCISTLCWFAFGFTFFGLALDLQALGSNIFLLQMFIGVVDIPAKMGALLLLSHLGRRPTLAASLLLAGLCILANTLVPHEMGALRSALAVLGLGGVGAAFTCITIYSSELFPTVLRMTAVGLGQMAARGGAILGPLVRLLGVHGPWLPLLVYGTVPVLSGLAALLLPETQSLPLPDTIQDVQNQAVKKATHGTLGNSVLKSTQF
# Procedure: Uptake experiments were performed using MDCKII cells stably expressing the human URAT1 uptake transporter. Cells were cultured at 37±1° C. in an atmosphere of 95:5 air:CO2 and were plated onto standard 96-well tissue culture plates at the cell number described in Table 1.
# Radiolabeled probe substrate transport was determined by measuring an aliquot (35 μL) from each well for liquid scintillation counting.
# [2] = Solubility of test articles in HBSS assay buffer; conditions: all tested concentrations, highest 10 μM
# Procedure: Before the experiment, the medium was removed and the cells were washed twice with 100 μL of HBSS without Cl^−. Uptake experiments were carried out at 37±1° C. in 50 μL of HBSS without Cl^−, pH 7.4 containing the probe substrate (20 μM uric acid) and the test article (TA) or solvent.
# [3] = In vitro metabolism in human liver microsomes; type: in vitro ADME; conditions: human liver microsomes 0.5 mg/mL, NADPH, 60 minutes, 37° C.
# Procedure: After pre-warming the mixture at 37° C. for 5 minutes, the reaction was initiated by the addition of 1 mM of NADPH and incubated for 60 minutes at 37° C. in a shaking water bath. The reaction was terminated by the addition of 0.5 mL ice-cold acetonitrile. Time 0 incubation was also performed by adding acetonitrile before the addition of microsomes to the incubation mixture as a reference sample for each species. Following vortex and centrifugation at 15,000 g for 3 minutes at room temperature, resulting supernatant was concentrated under nitrogen flow at 33° C., until approximately 0.5 mL of sample remained. The extract was then transferred to a 1.5-mL centrifuge vial for centrifugation at 15,000 g for 3 minutes. Finally, aliquots of the supernatant were transferred to HPLC vials for HPLC-MS analyses.
# MS Analysis: Mass spectral analyses were performed on an Agilent single quadruple mass spectrometer equipped with an Agilent 1100 HPLC system. The mass spectrometer was fitted with an electrospray ionization (ESI) source and operated in a negative scan mode between 400 and 500 amu: […]
# [4] = system: urine albumin-to-creatinine ratio (UACR); assay: Phase 2a study, UACR in a subject with albuminuria; type: in vivo, human; conditions: one subject with albuminuria, baseline 96 mg/g; sequential 7-day periods: Compound 1 50 mg (Day 7), Compound 1 50 mg/allopurinol 300 mg (Day 14), allopurinol 300 mg (Day 21)
# Text: Urine samples were collected for assessment of uric acid excretion. Laboratory safety tests, vital signs, and electrocardiograms were collected throughout the study.
# [5] = once daily, Compound 1 50 mg, febuxostat 40 mg, allopurinol 300 mg
# [6] = gout patients, once daily, Compound 1 50 mg, febuxostat 40 mg, allopurinol 300 mg, alone (Day 7/Day 21) or combined
pIC50 [1],solubility in HBSS buffer [2],"Parent, % MS response (parent left) [3] [%]",SMILES,patients with sUA levels below 5 mg/dL (serum uric acid (sUA); [5]) [%],patients with sUA levels below 6 mg/dL (serum uric acid (sUA); [5]) [%],mean sUA level reached at maximum (serum uric acid (sUA); [6]) [mg/dL],reduction of mean sUA from baseline (serum uric acid (sUA); [6]) [%],UACR [4] [mg/g],UACR % change from baseline [4] [%],"sUA % change from baseline (serum uric acid (sUA); one subject with albuminuria, sequential 7-day periods: Compound 1 50 mg (Day 7), Compound 1 50 mg/allopurinol 300 mg (Day 14), allopurinol 300 mg (Day 21)) [%]"
–,–,–,Cc1nc(-c2ccc(OCC(C)C)c(C#N)c2)sc1C(=O)O [febuxostat],33,67,5.5,38.9,–,–,–
6.04,soluble,–,"[2H]c1c(O)c([2H])c2oc(C(C)O)c(C(=O)c3cc(Br)c(O)c(Br)c3)c2c1[2H] (centres unmarked) [Compound 2, (3,5-dibromo-4-hydroxyphenyl)(6-hydroxy-2-(1-hydroxyethyl)benzofuran-3-yl-4,5,7-d3)methanone]",–,–,–,–,–,–,–
–,soluble,13.1,"CCc1oc2ccccc2c1C(=O)c1cc(Br)c(O)c(Br)c1 [benzbromarone, reference compound]",–,–,–,–,–,–,–
–,–,–,Oc1ncnc2[nH]ncc12 [allopurinol],11,56,5.8,–,55,−42.6,−40
